Where a chain is given by its changes, count along the chain named.
Experiments:
[1] = biological target: T1, human SLC7A4 triple mutant (Tri-M) (Homo sapiens, UniProt O43246, L336S/L394M/V332S); assay: competition of […] L-Leu uptake in HCT116 SLC7A5 KO cells; type: cell-based
T1 construct: C-terminal FLAG tag
T1 sequence (O43246 1-635 V332S/L336S/L394M): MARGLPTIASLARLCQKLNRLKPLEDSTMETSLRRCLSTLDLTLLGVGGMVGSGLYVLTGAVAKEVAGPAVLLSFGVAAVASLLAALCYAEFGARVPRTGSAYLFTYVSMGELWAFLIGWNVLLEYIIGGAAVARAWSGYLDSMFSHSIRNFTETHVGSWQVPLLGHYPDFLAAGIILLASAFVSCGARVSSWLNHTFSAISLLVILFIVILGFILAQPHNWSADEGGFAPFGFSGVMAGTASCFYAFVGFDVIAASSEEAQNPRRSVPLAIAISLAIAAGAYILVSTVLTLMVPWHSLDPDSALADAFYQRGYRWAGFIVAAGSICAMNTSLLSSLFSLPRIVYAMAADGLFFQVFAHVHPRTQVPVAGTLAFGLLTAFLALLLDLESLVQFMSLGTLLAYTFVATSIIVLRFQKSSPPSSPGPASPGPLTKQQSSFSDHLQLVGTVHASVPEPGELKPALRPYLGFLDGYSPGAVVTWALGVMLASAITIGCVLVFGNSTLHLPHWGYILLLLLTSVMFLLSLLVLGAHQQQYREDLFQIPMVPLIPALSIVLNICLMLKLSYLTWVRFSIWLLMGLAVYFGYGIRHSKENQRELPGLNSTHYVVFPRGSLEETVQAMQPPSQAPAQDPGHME

human SLC7A4 [2] = biological target: T2, human SLC7A4 (Homo sapiens, UniProt O43246); assay: competition of […] L-Leu uptake in HCT116 SLC7A5 KO cells; also recognised in nanoDSF; not transported; type: cell-based
T2 construct: C-terminal FLAG tag
T2 sequence (O43246 1-635): T1 sequence (O43246 1-635 V332S/L336S/L394M) with S332V, S336L, M394L

human SLC7A4 [3] = biological target: T2, human SLC7A4; assay: […] L-Leu uptake competition in HCT116 SLC7A5 KO cells overexpressing SLC7A4; also nanoDSF (~[…] °C) and proteoliposome uptake; type: cell-based
[4] = biological target: T1, human SLC7A4 triple mutant (Tri-M); assay: […] L-Leu uptake and competition in HCT116 SLC7A5 KO cells; type: cell-based
[5] = biological target: T3, Arabidopsis thaliana CAT4 (SLC7A4/CAT4) (Arabidopsis thaliana (Mouse-ear cress)., UniProt Q8W4K3); assay: BLI; Octet Red 384; who was immobilised is not stated; conditions: both partners purified
T3 construct: Cationic amino acid transporter 4 (CAT4) of Arabidopsis thaliana, UniProt Q8W4K3; codon-optimised synthetic gene in pDDGFP-Leu2D; C-terminal TEV site (ENLYFQG/S), yeGFP and His12 removed by TEV protease, so part of the TEV site stays on the C-terminus; also called AtCAT4; Arabidopsis thaliana SLC7A4; source: S. cerevisiae BJ5460, purified in LMNG (Ni-NTA, TEV cleavage, HisTrap flow-through, SEC); …
T3 sequence (Q8W4K3 whole entry): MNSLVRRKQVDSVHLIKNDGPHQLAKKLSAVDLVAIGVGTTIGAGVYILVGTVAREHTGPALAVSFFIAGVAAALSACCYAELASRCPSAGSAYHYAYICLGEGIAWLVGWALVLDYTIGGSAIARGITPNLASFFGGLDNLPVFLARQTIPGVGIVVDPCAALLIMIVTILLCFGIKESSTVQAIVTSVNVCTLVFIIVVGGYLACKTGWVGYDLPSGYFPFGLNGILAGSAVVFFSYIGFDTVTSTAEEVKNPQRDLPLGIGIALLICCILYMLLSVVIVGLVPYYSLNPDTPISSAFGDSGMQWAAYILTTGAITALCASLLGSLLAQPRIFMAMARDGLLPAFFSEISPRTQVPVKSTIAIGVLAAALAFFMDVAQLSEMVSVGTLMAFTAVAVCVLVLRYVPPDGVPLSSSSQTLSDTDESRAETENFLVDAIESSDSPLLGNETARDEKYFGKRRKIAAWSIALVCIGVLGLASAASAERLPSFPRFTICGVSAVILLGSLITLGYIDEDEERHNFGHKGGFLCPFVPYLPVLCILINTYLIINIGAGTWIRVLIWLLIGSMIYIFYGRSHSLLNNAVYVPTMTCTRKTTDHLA

In the case of `N=C(N)NCCC[C@H](N)C(=O)O` [L-Arginine], the IC50 [1] is reported as 48.6 ± 2.3 µM and the IC50 (human SLC7A4 [2]) is reported as 680 ± 19 µM.

With `CC(C)C[C@H](N)C(=O)O` [L-Leucine] the IC50 (human SLC7A4 [3]) was 24 ± 5 µM and the IC50 [4] was 65 µM.

B1: Sybody B5 (VHH)
VHH: QVQLVESGGGLVQAGGSLRLSCAASGFPVNMYWMHWYRQAPGKEREWVAAIQSYGQWTAYADSVKGRFTISRDNAKNTVYLQMNSLKPEDTAVYYCAVGVGGYYLGQGTQVTVS
notes: Synthetic nanobody selected from the loop sybody library against AtCAT4; also called SybB5; source: E. coli MC1061, periplasmic extraction, purified (Ni-NTA); not shown: Myc, C-terminal, kept; His6, C-terminal, kept
Work on B1 yielded a Kd [5] of 0.0573 ± 0.0105 µM.
